{"source": "patent US11472781B2", "about": "“2-aminoaryl-5-aryloxazole analogs for the treatment of neurodegenerative diseases” (Southern Research Institute, priority 2018, dated 2022)", "key": {"Solubility": {"assay": "Solubility", "assay_type": "physicochemical", "settings": "buffer, pH 7.4, aqueous buffer, kinetic from dmso stock", "from_the_text": "A standard panel of in vitro ADME assays will be utilized to assess drug-like properties of compounds and to inform subsequent in vivo PK studies. These assays include: (a) Permeability: MDCK (Madin Darby Canine Kidney) cells transfected with the MDR1 gene encoding for the multi-drug resistant transporter (Pgp) will be utilized to determine a compound's ability to permeate the membrane in apical to basolateral (A-B) and basolateral to apical (B-A) directions. The derived apparent permeability coefficient (Papp) provides an estimate of passive permeability; a ratio of Papp in the B-A/A-B direction gives an estimate of transporter efflux; (b) Solubility: Kinetic solubility is an important parameter for accurate determinations of the dose response. This is estimated using the shake flask method with a μSol Explorer (PION, Billerica, Mass.) at pH 7.4. Compounds are added as a DMSO solution to buffer. The average of two determinations at pH 7.4 will be reported. Solubility at pH 7.4 is relevant for in vitro assays; (c) Metabolic Stability: The potential for a high metabolic clearance compound is estimated using a liver microsome assay. […] The disappearance of the parent molecule is measured by liquid chromatography/mass spectroscopy (LC/MS) detection. […]"}, "In vivo PK (I.V./P.O.)": {"assay": "In vivo PK (I.V./P.O.)", "parameters": "species or system mice", "protocol": "Before the studies above were initiated, congenic SOD1 G93A mice were dosed with 50 mg/kg of compound no. 1 and compound no. 2 via I.P. injection to rule out any toxicity issues prior to initiating the efficacy study (FIG. 4A-C).\nThe experiments will involve the administration of compounds to 5-6 week old CD1 male mice. Mice are dosed by either a 1 mg/kg IV bolus or 5 mg/kg oral gavage. Blood samples are collected by cardiac puncture at 0, 0.25, 0.5, 1, 2, 4, 6, 8, 12, and 24 hrs. There will be three mice per time point. Plasma concentration over time will be determined by LC/MS from which the standard PK parameters of clearance, volume of distribution, t1/2 and % F can be derived using WinNoLin software (Pharsight Inc.). This will require a total of 60 mice per compound. Plasma will be analyzed by reverse phase chromatography with MS/MS detection operating in the positive ion mode using multiple reaction monitoring using an internal standard and Applied Biosystems Analyst 1.4 software. Peak time (when maximum plasma drug concentration occurs), peak drug level [approximate maximum concentrations of drug in plasma (Cmax)] and t1/2 for drug elimination will be estimated for each tested compound. Bioavailability (F) will be calculated from the ratio of AUCPO/AUCIV and expressed as a percentage. To determine levels in brain, six additional mice will be dosed with 1 mg/kg I.V. and sacrificed at 0.25 and 1 hr. Brain and spinal cord samples will be collected at these two time points, quick frozen in an ice box and kept at −75±15° C. All samples will be weighed and homogenized with phosphate buffered saline (PBS) by brain weight (g) to PBS volume (mL) ratio 1:3 before analysis. The actual concentration is the detected value multiplied by the dilution factor."}}}
{"smiles": "O=C(O)c1cccc(-c2cnc(Nc3ccccc3F)o2)c1", "note": "[Compound 40, 3-(2-((2-Fluorophenyl)amino)oxazol-5-yl)benzoic Acid]", "values": [{"measurement": "solubility", "setting": "Solubility", "result": 56, "unit": "µM"}, {"measurement": "half-life", "setting": "In vivo PK (I.V./P.O.); male, CD1, mouse, plasma, iv, 1 mg/kg, I.V., read-out: I.V. t1/2 (converted)", "result": 1.4, "unit": "h"}, {"measurement": "orally bioavailable", "setting": "In vivo PK (I.V./P.O.); oral", "result": 16, "unit": "%"}]}
